# Source: paper PMC6026274, “A GLP-1:CCK fusion peptide harnesses the synergistic effects on metabolism of CCK-1 and GLP-1 receptor agonism in mice” (Appetite, 2018)
# Starred links: 1 amine or outer side, 2 acyl side, 3 side chain; linkers in the order of their positions; H or OH if unused. Non-standard residues stand in square brackets, D forms with d. Residues, ends and D or L forms follow the SMILES beside them. Groups on a side chain read outwards from the residue. *: point of attachment. NMeF = CN[C@@H](Cc1ccccc1)C(=O)O; NH(2-Me-phenyl) = Cc1ccccc1N*; Nle = CCCC[C@H](N)C(=O)O; X1 = O=C(Cc1ccc(O)cc1)*; CO = O=C([*:1])[*:2]
# Assays:
# [1] = system: diet-induced obese (DIO) C57BL6 mice; experiment: Pharmacology study in DIO mice; type: in vivo; conditions: AC3174 and AC170222 7 nmol/kg each, C2816 and (pGlu-Gln)-CCK-8/exendin-4 50 nmol/kg
# Experimental: Obese male 10-week old C57BL6 mice (Jackson Laboratory) on high-fat diet (D12492, 60% kcal/fat, Research Diets) were single housed upon arrival and allowed to acclimate for 2 weeks. On day −3 mice were weighed and randomized to treatment groups (n = 8/group) based on body weight, with each mouse dosed once daily with two compounds or vehicle administered separately. […] Drug was administered once daily for 10 days intraperitoneally (5 mL/kg) 2 h prior to lights off.
# Sprague Dawley rats = experiment: Kaolin intake in lean rats; type: in vivo; conditions: overnight fasted lean rats, single i.p. injection; C2816 7 or 50 nmol/kg, cisplatin 10 mg/kg; vs vehicle; n = 9/group
# Experimental: After the acclimation period, rats were given chow and kaolin diet (K50001, Research Diets, Billerica, MA) in adjacent separate compartments in a divided food hopper. Rats were randomized to treatment groups based on 24 h chow intake, 24 h kaolin intake and body weight (n = 9/group). […] Cisplatin (10 mg/kg; Sigma-Aldrich, St Louis, MO) was administered i.p. as a positive control. Chow and kaolin intake was recorded at 4 and 24 h. A final body weight was also recorded at 24 h.
# [2] = terminal plasma, day 10, once daily i.p., mean ± SEM, n = 8, SEM
Structure (SMILES),"Body weight change ([1]; DIO mice, once daily i.p. for 10 days, n = 8/group)","Glucose ([1]; terminal non-fasted blood glucose, day 10, once daily i.p., mean ± SEM, n = 8, SEM)","ALT [1, 2]","AST [1, 2]","Amylase [1, 2]","Cholesterol [1, 2]","Insulin [1, 2]","Lipase [1, 2]","Triglycerides [1, 2]",Food (chow) intake at 4 h and 24 h post-dose (Sprague Dawley rats)
CCCC[C@H](NC(=O)Cc1ccc(O)cc1)C(=O)NCC(=O)N[C@@H](Cc1c[nH]c2ccccc12)C(=O)N[C@@H](CCCCNC(=O)Nc1ccccc1C)C(=O)N[C@@H](CC(=O)O)C(=O)N(C)[C@@H](Cc1ccccc1)C(N)=O [AC170222] (X1-[Nle]GWK([CO-NH(2-Me-phenyl)])D[NMeF]-NH2),did not affect,280 ± 11 mg/dL,86 ± 32 U/L,95 ± 27 U/L,2759 ± 75 U/L,192 ± 28 mg/dL,11.3 ± 4.1 ng/mL,77 ± 49 U/L,114 ± 6 mg/dL,
"N.N.[Cl][Pt][Cl] [cisplatin, Cisplatin]",,,,,,,,,,similarly reduced food intake as high dose C2816
